Data as given in US6274715A, “Tricyclic erythromycin derivatives” (priority 1997, dated 2001).
Converted amounts (≈) assume the structure as drawn. Read-outs that look alike come from different tables or passages of the source.

Tests used:
Assay type in all cases: cell-based
CANDIDA ALBICANS CCH 442 = test: In vitro antibacterial activity, MIC, BHI agar dilution; conditions: C. albicans CCH 442, unit assumed
[1] = tested on: STAPHYLOCOCCUS AUREUS NCTC10649M; test: as above; conditions: S. aureus NCTC10649M
[2] = tested on: STAPHYLOCOCCUS EPIDERMIDIS 3519; conditions: S. epidermidis 3519; BHI agar; unit assumed
[3] = tested on: PSEUDOMONAS AERUGINOSA BMH10; test: In vitro antibacterial activity, MIC, BHI agar dilution
[4] = tested on: PSEUDOMONAS AERUGINOSA K799/WT; test: as above; conditions: P. aeruginosa K799/WT
[5] = tested on: STAPHYLOCOCCUS AUREUS A-5278; test: as above; conditions: S. aureus A-5278, unit assumed
[6] = tested on: STAPHYLOCOCCUS AUREUS 1775; test: as above; conditions: S. aureus 1775, unit assumed
[7] = tested on: PSEUDOMONAS AERUGINOSA DPHD-2862; test: as above; conditions: P. aeruginosa DPHD-2862, unit assumed
[8] = tested on: MYCOBACTERIUM SMEGMATIS ATCC 114; test: as above; conditions: M. smegmatis ATCC 114, unit assumed
[9] = tested on: STREPTOCOCCUS PYOGENES 930; test: as above
ESCHERICHIA COLI H560 = test: as above
ESCHERICHIA COLI KNK 437 = conditions: E. coli KNK 437; BHI agar; unit assumed
EN[…] ATCC 8043 = test: In vitro antibacterial activity, MIC, BHI agar dilution
Experimental: (§1) Representative compounds of the present invention were assayed in vitro for antibacterial activity as follows: Twelve petri dishes containing successive aqueous dilutions of the test compound mixed with 10 mL of sterilized Brain Heart Infusion (BHI) agar (Difco 0418-01-5) were prepared. Each plate was inoculated with 1:100 (or 1:10 for slow-growing strains, such as Micrococcus and Streptococcus) dilutions of up to 32 different microorganisms, using a Steers replicator block. The inoculated plates were incubated at 35-37° C. for 20 to 24 hours. In addition, a control plate, using BHI agar containing no test compound, was prepared and incubated at the beginning and end of each test.
(§2) An additional plate containing a compound having known susceptibility patterns for the organisms being tested and belonging to the same antibiotic class as the test compound was also prepared and incubated as a further control, as well as to provide test-to-test comparability. Erythromycin A was used for this purpose.
(§3) After incubation, each plate was visually inspected. The minimum inhibitory concentration (MIC) was defmed as the lowest concentration of drug yielding no growth, a slight haze, or sparsely isolated colonies on the inoculum spot as compared to the growth control.

STR[…] 508 = test: as above
Experimental: as §1, §2, §3

M[…] ATCC 9341 = test: as above
Experimental: as §1, §2, §3

M[…] ATCC 4698 = test: as above; conditions: M. luteus ATCC 4698, unit assumed
Experimental: as §1, §2, §3

PSEUDOMONAS CEPACIA 296I = test: as above; conditions: P. cepacia 296I, unit assumed
[10] = tested on: STAPHYLOCOCCUS AUREUS CMX 642A; test: as above; conditions: S. aureus CMX 642A, unit assumed
[11] = tested on: PSEUDOMONAS AERUGINOSA 5007; test: as above; conditions: P. aeruginosa 5007, unit assumed
ESCHERICHIA COLI JUHL = conditions: E. coli JUHL, BHI agar, unit assumed
[12] = tested on: STREPTOCOCCUS BOVIS A-5169; test: In vitro antibacterial activity, MIC, BHI agar dilution; conditions: S. bovis A-5169, unit assumed
ESCHERICHIA COLI DC-2 = test: as above; conditions: E. coli DC-2, unit assumed
[13] = tested on: KLEBSIELLA PNEUMONIAE ATCC 8045; test: as above; conditions: K. pneumoniae ATCC 8045, unit assumed
[14] = tested on: STAPHYLOCOCCUS AUREUS A5177; test: as above; conditions: S. aureus A5177, unit assumed
[15] = tested on: STAPHYLOCOCCUS AUREUS ATCC 6538P; test: as above; conditions: S. aureus ATCC 6538P, 35-37° C., 20 to 24 hours, unit assumed
[16] = tested on: PROVIDENCIA STUARTII CMX 640; conditions: P. stuartii CMX 640; BHI agar; unit assumed
[17] = tested on: STREPTOCOCCUS PYOGENES EES61; test: In vitro antibacterial activity, MIC, BHI agar dilution; conditions: S. pyogenes EES61, unit assumed
[18] = tested on: PSEUDOMONAS AERUGINOSA K799/61; test: as above
[19] = tested on: STAPHYLOCOCCUS AUREUS CMX 553; test: as above; conditions: S. aureus CMX 553, unit assumed
[20] = tested on: PSEUDOMONAS AERUGINOSA DPHD-5263; test: as above; conditions: P. aeruginosa DPHD-5263, unit assumed
[21] = tested on: ENTEROBACTER AEROGENES ATCC 13048; test: as above
[22] = tested on: STREPTOCOCCUS PYOGENES PIU 2548; test: as above; conditions: S. pyogenes PIU 2548, unit assumed
ESCHERICHIA COLI SS = test: as above; conditions: E. coli SS, unit assumed
[23] = P. aeruginosa BMH10, unit assumed
[24] = E. faecium ATCC 8043, unit assumed
[25] = S. agalactiae CMX 508, unit assumed
[26] = M. luteus ATCC 9341, unit assumed
[27] = P. aeruginosa K799/61, unit assumed
[28] = E. aerogenes ATCC 13048, unit assumed

| SMILES | MIC (CANDIDA ALBICANS CCH 442) [µg/mL] | MIC ([1]; unit assumed) [µg/mL] | MIC [2] [µg/mL] | MIC [3, 23] [µg/mL] | MIC ([4]; unit assumed) [µg/mL] | MIC [5] [µg/mL] | MIC [6] [µg/mL] | MIC [7] [µg/mL] | MIC ([9]; S. pyogenes 930, unit assumed) [µg/mL] | MIC (ESCHERICHIA COLI H560; E. coli H560, unit assumed) [µg/mL] | MIC (ESCHERICHIA COLI KNK 437) [µg/mL] | MIC (EN[…] ATCC 8043; [24]) [µg/mL] | MIC (STR[…] 508; [25]) [µg/mL] | MIC (M[…] ATCC 9341; [26]) [µg/mL] | MIC (M[…] ATCC 4698) [µg/mL] | MIC (ESCHERICHIA COLI DC-2) [µg/mL] | MIC [14] [µg/mL] | MIC [15] [µg/mL] | MIC [17] [µg/mL] | MIC [19] [µg/mL] | also measured |
| --- | --- | --- | --- | --- | --- | --- | --- | --- | --- | --- | --- | --- | --- | --- | --- | --- | --- | --- | --- | --- | --- |
| CC[C@H]1OC(=O)[C@H](C)C(=O)[C@H](C)[C@@H](O[C@@H]2O[C@H](C)C[C@H](N(C)C)[C@H]2O)[C@](C)(OC)C[C@@H](C)C2=N[C@H](Cc3ccccc3)CN3C(=O)O[C@@]1(C)[C@H]3[C@H]2C [Example 3] | > 100 | 0.39 (≈ 0.536 µM) | 0.39 (≈ 0.536 µM) | > 100 | > 100 | > 100 | > 100 | > 100 | 100 (≈ 137 µM) | > 100 | > 100 | 0.05 (≈ 0.0687 µM) | 0.01 (≈ 0.0137 µM) | 0.1 (≈ 0.137 µM) | 0.39 (≈ 0.536 µM) | > 100 | 0.39 (≈ 0.536 µM) | 0.39 (≈ 0.536 µM) | 0.01 (≈ 0.0137 µM) | 0.39 (≈ 0.536 µM) | MIC [8]: > 100 µg/mL; MIC (PSEUDOMONAS CEPACIA 296I): > 100 µg/mL; MIC [10]: 0.39 µg/mL (≈ 0.536 µM); MIC [11]: > 100 µg/mL; MIC (ESCHERICHIA COLI JUHL): > 100 µg/mL; MIC [12]: 0.02 µg/mL (≈ 0.0275 µM); MIC [13]: > 100 µg/mL; MIC [16]: > 100 µg/mL; MIC [18, 27]: 3.1 µg/mL (≈ 4.26 µM); MIC [20]: > 100 µg/mL; MIC [21, 28]: > 100 µg/mL |
| CC[C@H]1OC(=O)[C@H](C)C(=O)[C@H](C)[C@@H](O[C@@H]2O[C@H](C)C[C@H](N(C)C)[C@H]2O)[C@](C)(OC)C[C@@H](C)C2=N[C@@H](Cc3ccccc3)CN3C(=O)O[C@@]1(C)[C@H]3[C@H]2C [Example 4] | 100 (≈ 137 µM) | 0.78 (≈ 1.07 µM) | 0.78 (≈ 1.07 µM) | > 100 | > 100 | > 100 | > 100 | > 100 | > 100 | 25 (≈ 34.3 µM) | > 100 | 0.1 (≈ 0.137 µM) | 0.005 (≈ 0.00687 µM) | 0.1 (≈ 0.137 µM) | 0.39 (≈ 0.536 µM) | 100 (≈ 137 µM) | 0.2 (≈ 0.275 µM) | 0.2 (≈ 0.275 µM) | 0.05 (≈ 0.0687 µM) | 0.78 (≈ 1.07 µM) | MIC (PSEUDOMONAS CEPACIA 296I): > 100 µg/mL; MIC [10]: 0.78 µg/mL (≈ 1.07 µM); MIC [11]: > 100 µg/mL; MIC (ESCHERICHIA COLI JUHL): > 100 µg/mL; MIC [12]: 0.02 µg/mL (≈ 0.0275 µM); MIC [13]: > 100 µg/mL; MIC [16]: > 100 µg/mL; MIC [18, 27]: 1.56 µg/mL (≈ 2.14 µM); MIC [20]: > 100 µg/mL; MIC [21, 28]: 100 µg/mL (≈ 137 µM) |
| CCC1OC(=O)C(C)C(=O)C(C)C(OC2OC(C)CC(N(C)C)C2O)C(C)(OC)CC(C)C2=NCC(CCc3ccccc3)N3C(=O)OC1(C)C3C2C (centres unmarked) [Example 39] | – | – | 0.78 (≈ 1.05 µM) | – | – | – | – | – | – | – | – | – | – | – | 0.2 (≈ 0.27 µM) | 100 (≈ 135 µM) | 0.39 (≈ 0.526 µM) | 0.78 (≈ 1.05 µM) | 0.01 (≈ 0.0135 µM) | 0.39 (≈ 0.526 µM) | MIC ([1]; listed as Ex 39, unit assumed): 0.39 µg/mL (≈ 0.526 µM); MIC ([3]; P. aeruginosa BMH10, listed as Ex 39, unit assumed): 50 µg/mL (≈ 67.4 µM); MIC ([4]; listed as Ex 39, unit assumed): 100 µg/mL (≈ 135 µM); MIC [22]: 0.2 µg/mL (≈ 0.27 µM); MIC ([9]; S. pyogenes 930, listed as Ex 39, unit assumed): 100 µg/mL (≈ 135 µM); MIC (ESCHERICHIA COLI H560; E. coli H560, listed as Ex 39, unit assumed): 25 µg/mL (≈ 33.7 µM); MIC (EN[…] ATCC 8043; E. faecium ATCC 8043, listed as Ex 39, unit assumed): 0.1 µg/mL (≈ 0.135 µM); MIC (STR[…] 508; S. agalactiae CMX 508, listed as Ex 39, unit assumed): 0.05 µg/mL (≈ 0.0674 µM); MIC (M[…] ATCC 9341; M. luteus ATCC 9341, listed as Ex 39, unit assumed): 0.1 µg/mL (≈ 0.135 µM); MIC (ESCHERICHIA COLI JUHL; listed as Ex 39): 100 µg/mL (≈ 135 µM); MIC ([18]; P. aeruginosa K799/61, listed as Ex 39, unit assumed): 1.56 µg/mL (≈ 2.1 µM); MIC (ESCHERICHIA COLI SS): 0.39 µg/mL (≈ 0.526 µM); MIC ([21]; E. aerogenes ATCC 13048, listed as Ex 39, unit assumed): > 100 µg/mL |
| CC[C@H]1OC(=O)[C@H](C)C(=O)[C@H](C)[C@@H](O[C@@H]2O[C@H](C)C[C@H](N(C)C)[C@H]2O)[C@](C)(OC)C[C@@H](C)C2=NC[C@H](COCc3ccc(OC)cc3)N3C(=O)O[C@@]1(C)[C@H]3[C@H]2C [Example 62] | > 100 | 0.2 (≈ 0.254 µM) | 0.2 (≈ 0.254 µM) | 100 (≈ 127 µM) | 25 (≈ 31.7 µM) | > 100 | > 100 | 100 (≈ 127 µM) | > 100 | 100 (≈ 127 µM) | 100 (≈ 127 µM) | 0.1 (≈ 0.127 µM) | 0.1 (≈ 0.127 µM) | 0.01 (≈ 0.0127 µM) | 0.02 (≈ 0.0254 µM) | 50 (≈ 63.5 µM) | 0.2 (≈ 0.254 µM) | 0.2 (≈ 0.254 µM) | 0.1 (≈ 0.127 µM) | 0.2 (≈ 0.254 µM) | MIC [22]: 0.2 µg/mL (≈ 0.254 µM); MIC [8]: 0.1 µg/mL (≈ 0.127 µM); MIC (PSEUDOMONAS CEPACIA 296I): 12.5 µg/mL (≈ 15.9 µM); MIC [10]: 0.2 µg/mL (≈ 0.254 µM); MIC [11]: 100 µg/mL (≈ 127 µM); MIC [12]: 0.1 µg/mL (≈ 0.127 µM); MIC [13]: 25 µg/mL (≈ 31.7 µM); MIC [16]: > 100 µg/mL; MIC [18, 27]: 0.2 µg/mL (≈ 0.254 µM); MIC (ESCHERICHIA COLI SS): 0.2 µg/mL (≈ 0.254 µM); MIC [20]: 50 µg/mL (≈ 63.5 µM); MIC [21, 28]: 25 µg/mL (≈ 31.7 µM) |
